Legend:
Experiment in all cases: radiometric filter-binding kinase assay, Kinase HotSpot
Conditions in all cases: compound 0.5 µM; ATP 10 µM
STK3 (human) = STK3 (human) (UniProt Q13188)
MAPK10 (human) = MAPK10 (human) (UniProt P53779)
INSRR (human) = INSRR (human) (UniProt P14616)
NTRK3 (human) = NTRK3 (human) (UniProt Q16288)
GSG2 (human) = GSG2 (human) (UniProt Q8TF76)
TBK1 (human) = TBK1 (human) (UniProt Q9UHD2)
LTK (human) = LTK (human) (UniProt P29376)
CDK2 CCNE1 (human) = CDK2 CCNE1 (human) (UniProt P24941+P24864)
CSNK1G2 (human) = CSNK1G2 (human) (UniProt P78368)
PAK2 (human) = PAK2 (human) (UniProt Q13177)
Chain of PAK2 (human) (Q13177 whole entry, looked up): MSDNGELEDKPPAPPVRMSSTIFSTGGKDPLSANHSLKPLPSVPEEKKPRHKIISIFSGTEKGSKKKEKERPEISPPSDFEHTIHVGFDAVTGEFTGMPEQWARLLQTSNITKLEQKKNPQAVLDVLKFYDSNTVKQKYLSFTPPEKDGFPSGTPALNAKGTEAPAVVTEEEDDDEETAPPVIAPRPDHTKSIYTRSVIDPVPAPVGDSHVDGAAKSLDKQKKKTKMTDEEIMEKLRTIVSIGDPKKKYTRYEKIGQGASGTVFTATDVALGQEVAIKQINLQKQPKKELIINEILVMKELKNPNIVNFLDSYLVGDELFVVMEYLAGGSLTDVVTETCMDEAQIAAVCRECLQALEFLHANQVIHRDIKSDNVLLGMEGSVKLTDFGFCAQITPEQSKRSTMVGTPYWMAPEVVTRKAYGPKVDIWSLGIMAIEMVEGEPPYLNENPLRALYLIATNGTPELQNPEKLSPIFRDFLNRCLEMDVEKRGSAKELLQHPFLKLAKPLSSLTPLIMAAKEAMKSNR

CDK1 CCNA2 (human) = CDK1 CCNA2 (human) (UniProt P06493+P20248)
DYRK4 (human) = DYRK4 (human) (UniProt Q9NR20)
CDK7 CCNH MNAT1 (human) = CDK7 CCNH MNAT1 (human) (UniProt P50613+P51948+P51946)
ABL1 (human) = ABL1 (human) (UniProt P00519)
MST1R (human) = MST1R (human) (UniProt Q04912)
STK25 (human) = STK25 (human) (UniProt O00506)
Chain of STK25 (human) (O00506 whole entry, looked up): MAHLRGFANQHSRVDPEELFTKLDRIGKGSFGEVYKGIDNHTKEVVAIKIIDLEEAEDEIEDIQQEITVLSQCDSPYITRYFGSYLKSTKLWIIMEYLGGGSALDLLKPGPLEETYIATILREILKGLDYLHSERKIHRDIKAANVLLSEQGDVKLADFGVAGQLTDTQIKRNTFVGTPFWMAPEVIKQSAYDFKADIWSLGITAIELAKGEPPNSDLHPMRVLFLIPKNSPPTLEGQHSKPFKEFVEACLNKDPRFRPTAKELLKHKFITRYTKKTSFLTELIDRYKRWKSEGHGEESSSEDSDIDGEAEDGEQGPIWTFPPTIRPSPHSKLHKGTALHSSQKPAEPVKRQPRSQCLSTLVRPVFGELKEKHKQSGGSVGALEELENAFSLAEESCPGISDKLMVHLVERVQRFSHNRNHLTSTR

CAMK1 (human) = CAMK1 (human) (UniProt Q14012)
PTK6 (human) = PTK6 (human) (UniProt Q13882)
Chain of PTK6 (human) (Q13882 whole entry, looked up): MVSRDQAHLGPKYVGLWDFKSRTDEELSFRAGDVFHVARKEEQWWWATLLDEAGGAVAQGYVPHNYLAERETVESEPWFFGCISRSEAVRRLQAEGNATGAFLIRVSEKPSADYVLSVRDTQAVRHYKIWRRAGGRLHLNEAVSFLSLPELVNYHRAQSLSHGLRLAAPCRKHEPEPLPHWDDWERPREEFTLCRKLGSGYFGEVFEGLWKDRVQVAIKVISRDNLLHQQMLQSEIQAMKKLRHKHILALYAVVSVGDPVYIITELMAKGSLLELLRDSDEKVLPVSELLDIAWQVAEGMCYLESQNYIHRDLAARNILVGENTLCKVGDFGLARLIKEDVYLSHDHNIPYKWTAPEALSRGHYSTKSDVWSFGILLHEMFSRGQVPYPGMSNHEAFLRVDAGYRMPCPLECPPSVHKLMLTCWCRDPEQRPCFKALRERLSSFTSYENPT

CAMK2A (human) = CAMK2A (human) (UniProt Q9UQM7)
MYLK2 (human) = MYLK2 (human) (UniProt Q9H1R3)
MET (human) = MET (human) (UniProt P08581)
CHUK (human) = CHUK (human) (UniProt O15111)
SRPK1 (human) = SRPK1 (human) (UniProt Q96SB4)
CAMK4 (human) = CAMK4 (human) (UniProt Q16566)
ABL2 (human) = ABL2 (human) (UniProt P42684)
PRKX (human) = PRKX (human) (UniProt P51817)
AKT3 (human) = AKT3 (human) (UniProt Q9Y243)
BTK (human) = BTK (human) (UniProt Q06187)
PRKD1 (human) = PRKD1 (human) (UniProt Q15139)
EPHA8 (human) = EPHA8 (human) (UniProt P29322)
MYLK (human) = MYLK (human) (UniProt Q15746)
CDK2 CCNA2 (human) = CDK2 CCNA2 (human) (UniProt P24941+P20248)
Chain of CDK2 CCNA2 (human) (P20248 whole entry, looked up, other chains not shown): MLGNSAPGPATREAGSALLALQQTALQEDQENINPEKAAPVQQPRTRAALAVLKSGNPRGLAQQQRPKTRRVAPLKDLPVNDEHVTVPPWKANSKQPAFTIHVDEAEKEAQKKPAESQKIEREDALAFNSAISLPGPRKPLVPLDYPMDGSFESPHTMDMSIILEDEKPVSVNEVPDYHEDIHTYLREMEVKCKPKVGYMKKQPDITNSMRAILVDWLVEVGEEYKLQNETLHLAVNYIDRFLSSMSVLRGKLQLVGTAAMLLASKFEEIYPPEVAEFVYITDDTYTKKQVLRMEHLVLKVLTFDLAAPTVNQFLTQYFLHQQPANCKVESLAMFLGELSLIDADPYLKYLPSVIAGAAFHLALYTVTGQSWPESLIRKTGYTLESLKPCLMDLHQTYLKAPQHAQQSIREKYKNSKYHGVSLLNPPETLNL

ULK2 (human) = ULK2 (human) (UniProt Q8IYT8)
Chain of ULK2 (human) (Q8IYT8 whole entry, looked up): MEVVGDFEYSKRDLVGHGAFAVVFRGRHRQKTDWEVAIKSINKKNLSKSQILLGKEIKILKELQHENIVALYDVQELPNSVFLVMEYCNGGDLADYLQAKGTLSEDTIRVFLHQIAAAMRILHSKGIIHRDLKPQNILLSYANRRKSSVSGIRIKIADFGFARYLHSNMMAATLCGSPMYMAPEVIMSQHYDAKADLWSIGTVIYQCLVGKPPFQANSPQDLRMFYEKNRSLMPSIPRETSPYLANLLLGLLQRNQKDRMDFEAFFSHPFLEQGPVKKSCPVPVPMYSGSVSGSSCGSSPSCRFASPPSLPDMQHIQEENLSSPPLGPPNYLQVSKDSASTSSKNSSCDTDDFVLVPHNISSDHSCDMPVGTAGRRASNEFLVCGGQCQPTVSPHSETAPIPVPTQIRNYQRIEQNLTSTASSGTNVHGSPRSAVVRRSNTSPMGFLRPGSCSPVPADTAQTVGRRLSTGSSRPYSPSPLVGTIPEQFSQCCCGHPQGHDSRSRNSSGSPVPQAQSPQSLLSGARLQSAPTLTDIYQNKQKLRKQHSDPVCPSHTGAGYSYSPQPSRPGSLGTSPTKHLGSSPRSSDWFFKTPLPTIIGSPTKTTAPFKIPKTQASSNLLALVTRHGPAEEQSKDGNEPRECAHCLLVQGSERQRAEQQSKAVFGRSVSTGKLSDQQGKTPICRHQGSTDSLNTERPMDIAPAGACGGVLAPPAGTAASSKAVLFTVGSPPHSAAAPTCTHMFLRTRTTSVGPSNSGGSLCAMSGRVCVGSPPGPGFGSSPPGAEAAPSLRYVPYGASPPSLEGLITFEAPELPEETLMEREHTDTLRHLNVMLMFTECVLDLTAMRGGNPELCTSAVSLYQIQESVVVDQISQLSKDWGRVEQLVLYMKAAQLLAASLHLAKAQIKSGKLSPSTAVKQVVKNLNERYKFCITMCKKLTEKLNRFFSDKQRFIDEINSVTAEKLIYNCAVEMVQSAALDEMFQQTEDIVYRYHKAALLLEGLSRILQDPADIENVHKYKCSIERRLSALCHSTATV

ADRBK1 (human) = ADRBK1 (human) (UniProt P25098)
Chain of ADRBK1 (human) (P25098 whole entry, looked up): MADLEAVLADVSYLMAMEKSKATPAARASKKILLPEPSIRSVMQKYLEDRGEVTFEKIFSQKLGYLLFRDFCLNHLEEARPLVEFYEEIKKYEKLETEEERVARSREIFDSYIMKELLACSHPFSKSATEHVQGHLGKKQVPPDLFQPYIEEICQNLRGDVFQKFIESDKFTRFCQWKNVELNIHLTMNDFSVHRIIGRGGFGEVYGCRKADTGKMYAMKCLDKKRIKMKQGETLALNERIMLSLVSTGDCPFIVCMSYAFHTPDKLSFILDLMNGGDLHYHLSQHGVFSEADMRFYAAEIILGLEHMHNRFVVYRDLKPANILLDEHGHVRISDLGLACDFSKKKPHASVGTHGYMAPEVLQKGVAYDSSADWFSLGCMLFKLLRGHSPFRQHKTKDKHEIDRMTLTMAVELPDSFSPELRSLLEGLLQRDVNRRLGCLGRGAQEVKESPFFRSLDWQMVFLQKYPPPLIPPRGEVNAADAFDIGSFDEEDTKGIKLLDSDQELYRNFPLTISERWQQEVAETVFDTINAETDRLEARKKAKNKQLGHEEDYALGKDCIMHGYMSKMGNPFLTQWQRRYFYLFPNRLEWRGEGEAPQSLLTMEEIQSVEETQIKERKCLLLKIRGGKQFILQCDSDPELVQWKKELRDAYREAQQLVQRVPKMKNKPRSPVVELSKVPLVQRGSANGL

PKN1 (human) = PKN1 (human) (UniProt Q16512)
GSK3A (human) = GSK3A (human) (UniProt P49840)
NTRK1 (human) = NTRK1 (human) (UniProt P04629)
MAPK3 (human) = MAPK3 (human) (UniProt P27361)
MAP3K3 (human) = MAP3K3 (human) (UniProt Q99759)
MATK (human) = MATK (human) (UniProt P42679)
RIPK2 (human) = RIPK2 (human) (UniProt O43353)
IKBKB (human) = IKBKB (human) (UniProt O14920)

Chain of INSRR (human) (P14616 whole entry, looked up): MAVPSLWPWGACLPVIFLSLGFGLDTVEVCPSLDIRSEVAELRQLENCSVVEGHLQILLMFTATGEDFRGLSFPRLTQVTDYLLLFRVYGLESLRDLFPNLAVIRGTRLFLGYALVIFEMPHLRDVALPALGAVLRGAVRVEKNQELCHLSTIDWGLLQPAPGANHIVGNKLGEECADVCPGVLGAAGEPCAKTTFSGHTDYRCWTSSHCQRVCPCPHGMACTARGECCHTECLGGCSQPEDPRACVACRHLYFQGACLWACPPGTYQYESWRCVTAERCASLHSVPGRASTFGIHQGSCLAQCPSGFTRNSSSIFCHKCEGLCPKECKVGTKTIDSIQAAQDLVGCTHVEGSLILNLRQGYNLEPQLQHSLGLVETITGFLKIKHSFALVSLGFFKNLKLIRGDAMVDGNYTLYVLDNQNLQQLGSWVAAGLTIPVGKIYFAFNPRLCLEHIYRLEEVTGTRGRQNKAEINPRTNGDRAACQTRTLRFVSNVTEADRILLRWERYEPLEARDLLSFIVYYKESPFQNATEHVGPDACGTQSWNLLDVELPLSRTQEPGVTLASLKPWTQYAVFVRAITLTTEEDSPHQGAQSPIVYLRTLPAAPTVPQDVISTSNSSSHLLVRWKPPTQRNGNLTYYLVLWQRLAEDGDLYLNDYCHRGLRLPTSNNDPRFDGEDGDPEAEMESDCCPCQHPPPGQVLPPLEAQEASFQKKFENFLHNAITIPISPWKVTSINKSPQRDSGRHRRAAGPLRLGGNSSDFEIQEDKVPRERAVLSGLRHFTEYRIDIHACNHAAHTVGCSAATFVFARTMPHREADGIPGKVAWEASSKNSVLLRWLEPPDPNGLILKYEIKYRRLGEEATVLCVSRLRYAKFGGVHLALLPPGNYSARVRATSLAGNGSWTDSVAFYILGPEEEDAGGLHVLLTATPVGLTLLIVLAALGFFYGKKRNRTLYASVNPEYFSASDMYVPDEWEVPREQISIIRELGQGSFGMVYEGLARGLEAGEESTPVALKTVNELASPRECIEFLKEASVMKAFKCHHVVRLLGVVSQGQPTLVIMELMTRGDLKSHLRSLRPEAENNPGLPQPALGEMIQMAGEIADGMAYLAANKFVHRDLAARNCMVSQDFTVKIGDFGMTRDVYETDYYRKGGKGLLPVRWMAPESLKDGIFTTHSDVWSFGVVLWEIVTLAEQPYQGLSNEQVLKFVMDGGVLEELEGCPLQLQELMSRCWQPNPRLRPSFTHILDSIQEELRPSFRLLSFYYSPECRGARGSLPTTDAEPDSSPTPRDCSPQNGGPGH

Compound: O=c1c2ccccc2[nH]c(=S)n1CCN1CCC(=C(c2ccc(F)cc2)c2ccc(F)cc2)CC1
- residual activity (STK3 (human)): 102%
- residual activity (MAPK10 (human)): 76.2%
- residual activity (INSRR (human)): 98.3%
- residual activity (NTRK3 (human)): 98.9%
- residual activity (GSG2 (human)): 95.4%
- residual activity (TBK1 (human)): 104%
- residual activity (LTK (human)): 97.9%
- residual activity (CDK2 CCNE1 (human)): 97.3%
- residual activity (CSNK1G2 (human)): 98.6%
- residual activity (PAK2 (human)): 103%
- residual activity (CDK1 CCNA2 (human)): 96.8%
- residual activity (DYRK4 (human)): 97.5%
- residual activity (CDK7 CCNH MNAT1 (human)): 99.6%
- residual activity (ABL1 (human)): 106%
- residual activity (MST1R (human)): 103%
- residual activity (STK25 (human)): 96.6%
- residual activity (CAMK1 (human)): 98.6%
- residual activity (PTK6 (human)): 100%
- residual activity (CAMK2A (human)): 105%
- residual activity (MYLK2 (human)): 99.9%
- residual activity (MET (human)): 114%
- residual activity (CHUK (human)): 95%
- residual activity (SRPK1 (human)): 97.8%
- residual activity (CAMK4 (human)): 94.7%
- residual activity (ABL2 (human)): 103%
- residual activity (PRKX (human)): 106%
- residual activity (AKT3 (human)): 99.4%
- residual activity (BTK (human)): 105%
- residual activity (PRKD1 (human)): 101%
- residual activity (EPHA8 (human)): 102%
- residual activity (MYLK (human)): 96.2%
- residual activity (CDK2 CCNA2 (human)): 99.9%
- residual activity (ULK2 (human)): 96.5%
- residual activity (ADRBK1 (human)): 100%
- residual activity (PKN1 (human)): 103%
- residual activity (GSK3A (human)): 104%
- residual activity (NTRK1 (human)): 97%
- residual activity (MAPK3 (human)): 105%
- residual activity (MAP3K3 (human)): 102%
- residual activity (MATK (human)): 92.9%
- residual activity (RIPK2 (human)): 93.1%
- residual activity (IKBKB (human)): 99.5%

Compound: Cn1cc(/C=C2\C(=O)Nc3ccc(S(N)(=O)=O)cc32)c2ccccc21
- residual activity (STK3 (human)): 23.4%
- residual activity (MAPK10 (human)): 93.1%
- residual activity (INSRR (human)): 86.9%
- residual activity (NTRK3 (human)): 1.18%
- residual activity (GSG2 (human)): 93.1%
- residual activity (TBK1 (human)): 21.6%
- residual activity (LTK (human)): 54.5%
- residual activity (CDK2 CCNE1 (human)): 77.9%
- residual activity (CSNK1G2 (human)): 100%
- residual activity (PAK2 (human)): 79.2%
- residual activity (CDK1 CCNA2 (human)): 56.9%
- residual activity (DYRK4 (human)): 73.7%
- residual activity (CDK7 CCNH MNAT1 (human)): 73.7%
- residual activity (ABL1 (human)): 52.5%
- residual activity (MST1R (human)): 100%
- residual activity (STK25 (human)): 83.5%
- residual activity (CAMK1 (human)): 75.7%
- residual activity (PTK6 (human)): 80.2%
- residual activity (CAMK2A (human)): 57.6%
- residual activity (MYLK2 (human)): 53.6%
- residual activity (MET (human)): 84.2%
- residual activity (CHUK (human)): 109%
- residual activity (SRPK1 (human)): 69%
- residual activity (CAMK4 (human)): 96.4%
- residual activity (ABL2 (human)): 54.2%
- residual activity (PRKX (human)): 81%
- residual activity (AKT3 (human)): 97.4%
- residual activity (BTK (human)): 30.4%
- residual activity (PRKD1 (human)): 80%
- residual activity (EPHA8 (human)): 83.4%
- residual activity (MYLK (human)): 95%
- residual activity (CDK2 CCNA2 (human)): 66.2%
- residual activity (ULK2 (human)): 72.3%
- residual activity (ADRBK1 (human)): 100%
- residual activity (PKN1 (human)): 68.9%
- residual activity (GSK3A (human)): 100%
- residual activity (NTRK1 (human)): 6.15%
- residual activity (MAPK3 (human)): 109%
- residual activity (MAP3K3 (human)): 80.7%
- residual activity (MATK (human)): 103%
- residual activity (RIPK2 (human)): 74.3%
- residual activity (IKBKB (human)): 101%

— the kinase profiling compilation of Christmann-Franck et al. (2016)
